Measurements published in PMC6718736, “Validation of in vitro methods for human cytochrome P450 enzyme induction: Outcome of a multi-laboratory study” (Toxicology in Vitro, 2019).
“Also recorded” adds a separate entry of the source. Like-named read-outs stand apart in the source and are kept apart here.

How the values were obtained:
[1] = system: CYP1A2; test: CYP1A2 enzyme induction assay in cryopreserved HepaRG cells (phenacetin probe, LC/MS); format: in vitro ADME, human; settings: for Assigned classification CYP1A2: HepaRG; for Assigned classification CYP1A2: key: 1=Positive=inducer; 0=Negative=non-inducer
[2] = system: CYP2B6; test: CYP2B6 enzyme induction assay in cryopreserved HepaRG cells (bupropion probe, LC/MS); format: in vitro ADME, human; settings: for Prediction in vivo inducer: Cmax/F2 >0.5 criterion; for Assigned classification CYP2B6: HepaRG; for Assigned classification CYP2B6: key: 1=Positive=inducer; 0=Negative=non-inducer
[3] = system: CYP3A4; test: CYP3A4 enzyme induction assay in cryopreserved HepaRG cells (midazolam probe, LC/MS); format: in vitro ADME, human; settings: for Assigned classification CYP3A4: HepaRG; for Assigned classification CYP3A4: key: 1=Positive=inducer; 0=Negative=non-inducer
[4] = system: CYP1A2; test: CYP1A2 enzyme induction assay in cryopreserved primary human hepatocytes (PHH); format: in vitro ADME; settings: for Prediction in vivo inducer: Cmax/F2 >0.5 criterion; for Assigned classification CYP1A2: PHH;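 for Assigned classification CYP1A2: code 1 means positive inducer and 0 means non-inducer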
[5] = system: CYP2B6; test: CYP2B6 enzyme induction assay in cryopreserved primary human hepatocytes (PHH); format: in vitro ADME; settings: for Assigned classification CYP2B6: PHH;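 for Assigned classification CYP2B6: code 1 means positive inducer and 0 means non-inducer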
[6] = system: CYP1A2; settings: cited from earlier work
[7] = cited from earlier work
[8] = system: CYP; settings: CYP isoforms induced; ref Abadie et al. (2009), Richert et al. (2010), Preissner et al. (2010), Hoffmann et al. (2014); cited from earlier work
[9] = system: CYP2B6; settings: cited from earlier work
[10] = system: CYP3A4; settings: cited from earlier work
[11] = system: CYP3A4; test: CYP3A4 enzyme induction assay in cryopreserved primary human hepatocytes (PHH); settings: for Assigned classification CYP3A4: PHH
[12] = human in vivo, CYP named without remark = induced, ref references in the cell, Washington University database, Hoffmann et al. (2014), Pelkonen et al. (2008), Hukkanen et al. (2012)

Q: With `NC(=O)N1c2ccccc2C=Cc2ccccc21` [Carbamazepine] as the compound, how does the “Prediction in vivo inducer” value ([1]; CYP1A2, HepaRG cells, Cmax/F2 >0.5 criterion) read?
A: Yes

Q: What about the F2 ([1]; CYP1A2, HepaRG cells, in vitro concentration producing 2-fold induction) of the same compound?
A: 56.4 µM

Q: What about the Induction in vitro ([1]; CYP1A2, HepaRG cells, positive in one batch in each of the three laboratories) of the same compound?
A: Yes

Q: And the “Assigned classification CYP1A2” value ([1]; Lab 1, batch 20)?
A: 1

Q: And the “Assigned classification CYP1A2” value ([1]; Lab 1, batch 35)?
A: 1

Q: And the “Assigned classification CYP1A2” value ([1]; Lab 1, batch 36)?
A: 1

Q: And the “Assigned classification CYP1A2” value ([1]; Lab 2, batch 20)?
A: 1

Q: And the “Assigned classification CYP1A2” value ([1]; Lab 2, batch 35)?
A: 1

Q: And the “Assigned classification CYP1A2” value ([1]; Lab 2, batch 36)?
A: 1

Q: What about the “Assigned classification CYP1A2” value ([1]; Lab 3, batch 20) of the same compound?
A: 0

Q: And the “Assigned classification CYP1A2” value ([1]; Lab 3, batch 35)?
A: 1

Q: And the “Assigned classification CYP1A2” value ([1]; Lab 3, batch 36)?
A: 1

Q: And the “Prediction in vivo inducer” value ([2]; CYP2B6, HepaRG cells)?
A: Yes

Q: And the “Prediction in vivo inducer” value ([2]; CYP2B6, HepaRG cells, listed as carbamazepine)?
A: correctly classified

Q: What about the F2 ([2]; CYP2B6, HepaRG cells, in vitro concentration producing 2-fold induction) of the same compound?
A: 18.8 µM

Q: And the Induction in vitro ([2]; CYP2B6, HepaRG cells, positive in one batch in each of the three laboratories)?
A: Yes

Q: What about the “Assigned classification CYP2B6” value ([2]; Lab 1, batch 20) of the same compound?
A: 1

Q: And the “Assigned classification CYP2B6” value ([2]; Lab 1, batch 35)?
A: 1

Q: What about the “Assigned classification CYP2B6” value ([2]; Lab 1, batch 36) of the same compound?
A: 1

Q: What about the “Assigned classification CYP2B6” value ([2]; Lab 2, batch 20) of the same compound?
A: 1

Q: What about the “Assigned classification CYP2B6” value ([2]; Lab 2, batch 35) of the same compound?
A: 1

Q: And the “Assigned classification CYP2B6” value ([2]; Lab 2, batch 36)?
A: 1

Q: What about the “Assigned classification CYP2B6” value ([2]; Lab 3, batch 20) of the same compound?
A: 1

Q: And the “Assigned classification CYP2B6” value ([2]; Lab 3, batch 35)?
A: 1

Q: And the “Assigned classification CYP2B6” value ([2]; Lab 3, batch 36)?
A: 1

Q: And the F2 ([3]; CYP3A4, HepaRG cells)?
A: 18.8 µM

Q: And the Induction in vitro ([3]; CYP3A4, HepaRG cells)?
A: Yes

Q: And the “Prediction in vivo inducer” value ([3]; CYP3A4, HepaRG cells)?
A: Yes

Q: What about the “Assigned classification CYP3A4” value ([3]; Lab 1, batch 20) of the same compound?
A: 1

Q: What about the “Assigned classification CYP3A4” value ([3]; Lab 1, batch 35) of the same compound?
A: 1

Q: What about the “Assigned classification CYP3A4” value ([3]; Lab 1, batch 36) of the same compound?
A: 0

Q: And the “Assigned classification CYP3A4” value ([3]; Lab 2, batch 20)?
A: 1

Q: And the “Assigned classification CYP3A4” value ([3]; Lab 2, batch 35)?
A: 1

Q: And the “Assigned classification CYP3A4” value ([3]; Lab 2, batch 36)?
A: 1

Q: And the “Assigned classification CYP3A4” value ([3]; Lab 3, batch 20)?
A: 1

Q: And the “Assigned classification CYP3A4” value ([3]; Lab 3, batch 35)?
A: 1

Q: What about the “Assigned classification CYP3A4” value ([3]; Lab 3, batch 36) of the same compound?
A: 1

Q: What about the “Prediction in vivo inducer” value ([4]; CYP1A2, PHH) of the same compound?
A: No

Q: What about the “Prediction in vivo inducer” value ([4]; CYP1A2, PHH, listed as carbamazepine) of the same compound?
A: non-inducer; also recorded: missed the in vivo prediction

Q: And the Induction in vitro ([4]; CYP1A2, PHH, positive in one donor in each of the three laboratories)?
A: No

Q: What about the “Assigned classification CYP1A2” value ([4]; Lab 1, batch 0 6 A) of the same compound?
A: 0

Q: What about the “Assigned classification CYP1A2” value ([4]; Lab 1, batch 4 0 8) of the same compound?
A: 1

Q: What about the “Assigned classification CYP1A2” value ([4]; Lab 1, batch 8 0 8) of the same compound?
A: 0

Q: What about the “Assigned classification CYP1A2” value ([4]; Lab 2, batch 0 6 A) of the same compound?
A: 0

Q: And the “Assigned classification CYP1A2” value ([4]; Lab 2, batch 4 0 8)?
A: 0

Q: And the “Assigned classification CYP1A2” value ([4]; Lab 2, batch 8 0 8)?
A: 0

Q: What about the “Assigned classification CYP1A2” value ([4]; Lab 3, batch 0 6 A) of the same compound?
A: 1

Q: And the “Assigned classification CYP1A2” value ([4]; Lab 3, batch 4 0 8)?
A: 0

Q: And the “Assigned classification CYP1A2” value ([4]; Lab 3, batch 8 0 8)?
A: 0

Q: What about the F2 ([5]; CYP2B6, PHH) of the same compound?
A: 2.09 to 6.27 µM

Q: What about the Induction in vitro ([5]; CYP2B6, PHH) of the same compound?
A: Yes

Q: And the “Prediction in vivo inducer” value ([5]; CYP2B6, PHH)?
A: Yes

Q: And the “Prediction in vivo inducer” value ([5]; CYP2B6, PHH, Cmax/F2 >0.5 criterion)?
A: positive

Q: What about the “Assigned classification CYP2B6” value ([5]; Lab 1, batch 0 6 A) of the same compound?
A: 1

Q: And the “Assigned classification CYP2B6” value ([5]; Lab 1, batch 4 0 8)?
A: 1

Q: What about the “Assigned classification CYP2B6” value ([5]; Lab 1, batch 8 0 8) of the same compound?
A: 0

Q: What about the “Assigned classification CYP2B6” value ([5]; Lab 2, batch 0 6 A) of the same compound?
A: 1

Q: And the “Assigned classification CYP2B6” value ([5]; Lab 2, batch 4 0 8)?
A: 1

Q: And the “Assigned classification CYP2B6” value ([5]; Lab 2, batch 8 0 8)?
A: 0

Q: What about the “Assigned classification CYP2B6” value ([5]; Lab 3, batch 0 6 A) of the same compound?
A: 1

Q: What about the “Assigned classification CYP2B6” value ([5]; Lab 3, batch 4 0 8) of the same compound?
A: 1

Q: And the “Assigned classification CYP2B6” value ([5]; Lab 3, batch 8 0 8)?
A: 0

Q: What about the Induction in vivo ([6]; CYP1A2, human, ref Table 1) of the same compound?
A: Yes

Q: What about the “CYP induction in vivo literature reference: CYP1A2” value [6, 12] of the same compound?
A: CYP 1A2

Q: And the Cmax ([7]; human in vivo plasma concentration, normal dose)?
A: 39 µM

Q: And the Cmax ([7]; human in vivo, normal dose (Table 10))?
A: 39 µM

Q: And the “CYP induction in vitro (human hepatocytes)” value [8]?
A: CYP1A2, CYP2B6, CYP3A4

Q: And the Induction in vivo ([9]; CYP2B6, human in vivo reference classification)?
A: Yes

Q: What about the Induction in vivo ([9]; CYP2B6, human, ref Table 1) of the same compound?
A: Yes

Q: What about the “CYP induction in vivo literature reference: CYP2B6” value [9, 12] of the same compound?
A: CYP2B6

Q: What about the Induction in vivo ([10]; CYP3A4, human in vivo reference classification (Table 11)) of the same compound?
A: Yes

Q: What about the “CYP induction in vivo literature reference: CYP3A4” value [10, 12] of the same compound?
A: CYP 3A4

Q: And the Induction in vitro ([11]; CYP3A4, PHH)?
A: Yes

Q: What about the “Prediction in vivo inducer” value ([11]; CYP3A4, PHH) of the same compound?
A: Yes

Q: What about the “Assigned classification CYP3A4” value ([11]; Lab 1, batch 0 6 A) of the same compound?
A: 1

Q: What about the “Assigned classification CYP3A4” value ([11]; Lab 1, batch 4 0 8) of the same compound?
A: 1

Q: What about the “Assigned classification CYP3A4” value ([11]; Lab 1, batch 8 0 8) of the same compound?
A: 1

Q: And the “Assigned classification CYP3A4” value ([11]; Lab 2, batch 0 6 A)?
A: 1

Q: And the “Assigned classification CYP3A4” value ([11]; Lab 2, batch 4 0 8)?
A: 1

Q: What about the “Assigned classification CYP3A4” value ([11]; Lab 2, batch 8 0 8) of the same compound?
A: 1

Q: And the “Assigned classification CYP3A4” value ([11]; Lab 3, batch 0 6 A)?
A: 1

Q: And the “Assigned classification CYP3A4” value ([11]; Lab 3, batch 4 0 8)?
A: 1

Q: What about the “Assigned classification CYP3A4” value ([11]; Lab 3, batch 8 0 8) of the same compound?
A: 1
